Assay results taken from US20190105367A1, “ANTIMICROBIAL 4-OXOQUINOLIZINES” (Emergent Product Development Gaithersburg Inc., priority 2011, published 2019).
Like-named read-outs stand apart in the source and are kept apart here.

Experiments:
[1] = tested on: strains of A. baumannii and one strain of Acinetobacter sp.; experiment: MIC with sub-inhibitory concentrations (0.25x MIC) of polymyxin B, panel of Acinetobacter strains (Example 4); type: cell-based
[2] = tested on: A. baumannii ATCC 19606; experiment: MIC without and with sub-inhibitory polymyxin B (Example 4); type: cell-based, Acinetobacter baumannii
[3] = tested on: A. baumannii ATCC 19606; experiment: Preliminary MBC without and with sub-inhibitory polymyxin B (Example 4); type: cell-based, Acinetobacter baumannii; details: for MBC: 2nd experiment
[4] = tested on: A. baumannii J2; experiment: MIC without and with sub-inhibitory polymyxin B (Example 4); type: cell-based, Acinetobacter baumannii; details: A. baumannii J2
[5] = tested on: A. baumannii J2; experiment: Preliminary MBC without and with sub-inhibitory polymyxin B (Example 4); type: cell-based, Acinetobacter baumannii; details: A. baumannii J2, preliminary MBC; for MBC: 2nd experiment
[6] = tested on: Acinetobacter sp. (H064200250); experiment: MIC without and with sub-inhibitory polymyxin B (Example 4); type: cell-based
[7] = tested on: Acinetobacter sp. (H064200250); experiment: Preliminary MBC without and with sub-inhibitory polymyxin B (Example 4); type: cell-based; details: preliminary MBC; for MBC: Acinetobacter spp. H064200250 (OXA51), 2nd experiment
Outline: (§1)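 Incubation 18-20 h, 37° C. MBC = lowest conc. with ~90% fewer colonies than positive control (single/no colonies).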

[8] = tested on: A. baumannii A329; experiment: as above; type: cell-based, Acinetobacter baumannii; details: for MBC: 2nd experiment
[9] = tested on: A. baumannii A387; experiment: MIC without and with sub-inhibitory polymyxin B (Example 4); type: cell-based, Acinetobacter baumannii; details: A. baumannii A387
[10] = tested on: A. baumannii A387; experiment: Preliminary MBC without and with sub-inhibitory polymyxin B (Example 4); type: cell-based, Acinetobacter baumannii; details: for MBC: 2nd experiment
[11] = tested on: A. baumannii A390; experiment: MIC without and with sub-inhibitory polymyxin B (Example 4); type: cell-based, Acinetobacter baumannii; details: A. baumannii A390
[12] = tested on: A. baumannii A14; experiment: Preliminary MBC without and with sub-inhibitory polymyxin B (Example 4); type: cell-based, Acinetobacter baumannii; details: 2nd experiment
Outline: as §1

[13] = tested on: A. baumannii A390; experiment: as above; type: cell-based, Acinetobacter baumannii; details: for MBC: 2nd experiment
Outline: as §1

[14] = tested on: A. baumannii A473; experiment: as above; type: cell-based, Acinetobacter baumannii; details: for MBC: 2nd experiment
Outline: as §1

[15] = tested on: A. baumannii NCTC 13301; experiment: as above; type: cell-based, Acinetobacter baumannii; details: A. baumannii NCTC 13301, preliminary MBC; for MBC: 2nd experiment
Outline: as §1

[16] = tested on: A. baumannii A401; experiment: MIC without and with sub-inhibitory polymyxin B (Example 4); type: cell-based, Acinetobacter baumannii; details: A baumannii A 401; for MIC: 2nd experiment
[17] = tested on: A. baumannii A401; experiment: Preliminary MBC without and with sub-inhibitory polymyxin B (Example 4); type: cell-based, Acinetobacter baumannii; details: for MBC: 2nd experiment
[18] = tested on: A. baumannii A472; experiment: MIC without and with sub-inhibitory polymyxin B (Example 4); type: cell-based, Acinetobacter baumannii; details: A. baumannii A472; for MIC: 2nd experiment
[19] = tested on: A. baumannii A472; experiment: Preliminary MBC without and with sub-inhibitory polymyxin B (Example 4); type: cell-based, Acinetobacter baumannii; details: A. baumannii A472, preliminary MBC; for MBC: 2nd experiment
[20] = tested on: A. baumannii A473; experiment: MIC without and with sub-inhibitory polymyxin B (Example 4); type: cell-based, Acinetobacter baumannii; details: A. baumannii A473
[21] = tested on: A. baumannii A489; experiment: as above; type: cell-based, Acinetobacter baumannii; details: A. baumannii A489
[22] = tested on: A. baumannii NCTC 13301; experiment: as above; type: cell-based, Acinetobacter baumannii; details: A. baumannii NCTC 13301, 1st experiment
[23] = tested on: A. baumannii NCTC 13301; experiment: as above; type: cell-based, Acinetobacter baumannii; details: A. baumannii NCTC 13301, 2nd experiment
[24] = tested on: A. baumannii A14; experiment: as above; type: cell-based, Acinetobacter baumannii; details: 1st experiment
[25] = A. baumannii ATCC 19606, +0.06 μg/ml PB, 2nd experiment
[26] = A. baumannii ATCC 19606, +0.06 μg/ml polymyxin B, 1st experiment
[27] = +[…] polymyxin B, 1st experiment
[28] = without polymyxin B, 1st experiment
[29] = Acinetobacter spp. H064200250 (OXA51), +[…] PB, 2nd experiment
[30] = Acinetobacter spp. H064200250, without polymyxin B, 1st experiment
[31] = ratio, PB 0.06 μg/ml, 1st experiment

Substance: 8-[(3S)-3-aminocyclopentyl]-1- cyclopropyl-7-fluoro-9-methyl- 4-oxo-quinolizine-3-carboxylic acid [Compound 10, reference compound]
- Change of activity (MIC) in presence of polymyxin B compared to without polymyxin B [1]: less potentiated
- Range ratios MIC without PB/MIC with PB Oct. 1, 2008 n = 8 ([1]; 1st experiment): 1-8
- MIC range with PB (0.25x MIC) Oct. 1, 2008 n = 8 ([1]; 1st experiment, […] polymyxin B, ATCC 19606, A329, A390 and A473 not taken): 0.5 to 8 µg/mL
- Range ratios MIC without PB/MIC with PB Oct. 14, 2008 n = 11 ([1]; 2nd experiment): 1-8
- MIC range with PB (0.25x MIC) Oct. 14, 2008 n = 11 ([1]; 2nd experiment, 0.06 μg/ml polymyxin B, all strains except the ATCC strain): 0.25 to 2 µg/mL
- MIC [2, 25]: 0.06 µg/mL
- MIC without PB/MIC + PB [2, 25]: 2
- MIC +0.06 μg/ml PB [2, 26]: 0.03 µg/mL
- MIC without PB/MIC + PB ([2]; A. baumannii ATCC 19606, ratio, PB 0.06 μg/ml, 1st experiment): 256
- MIC ([2]; A. baumannii ATCC 19606, without PB, 2nd experiment): 0.125 µg/mL
- MIC ([2]; A. baumannii ATCC 19606, without PB, value in parentheses marked *, mark not explained, 2nd experiment): 0.06 µg/mL
- Activity against the A. baumannii ATCC 19606 strain ([2]; with and without sub-inhibitory concentrations of polymyxin B): potent activities
- MBC ([3]; A. baumannii ATCC 19606, +0.06 μg/ml PB): 0.03 µg/mL
- MBC +0.06 μg/ml PB [3, 26]: 0.03 µg/mL
- MBC ([3]; A. baumannii ATCC 19606, without PB): 0.125 µg/mL
- MIC ([4]; +[…] PB, 2nd experiment): 0.25 µg/mL
- MIC without PB/MIC + PB ([4]; +[…] PB, 2nd experiment): 8
- MIC +[…] PB [4, 27]: 1 µg/mL
- MIC without PB/MIC + PB ([4]; ratio, PB […], 1st experiment): 2
- MIC ([4]; without PB, 2nd experiment): 2 µg/mL
- MIC without PB [4, 28]: 2 µg/mL
- MBC ([5]; +[…] PB): 0.25 µg/mL
- MBC +[…] PB [5, 27]: 1 µg/mL
- MBC ([5]; without PB): 2 µg/mL
- MBC without PB [5, 28]: 1 µg/mL
- MIC +[…] PB [6]: 1 µg/mL
- MIC without PB/MIC + PB [6]: 2
- MIC [6, 29]: 1 µg/mL
- MIC without PB/MIC + PB [6, 29]: 1
- MIC ([6]; Acinetobacter spp. H064200250 (OXA51), without PB, 2nd experiment): 1 µg/mL
- MIC without PB [6, 30]: 2 µg/mL
- MBC ([7]; +[…] PB): 0.5 µg/mL
- MBC ([7]; without PB): 1 µg/mL
- MBC +[…] PB ([7]; Acinetobacter spp. H064200250, +[…] polymyxin B, 1st experiment): 1 µg/mL
- MBC without PB [7, 30]: 0.5 µg/mL
- MBC ([8]; A. baumannii A329, +0.06 μg/ml PB): 2 µg/mL
- MBC ([8]; A. baumannii A329, without PB): 2 µg/mL
- MBC without PB ([8]; A. baumannii A329, without polymyxin B, 1st experiment): 2 µg/mL
- MIC ([9]; +0.06 μg/ml PB, 2nd experiment): 0.5 µg/mL
- MIC without PB/MIC + PB ([9]; +0.06 μg/ml PB, 2nd experiment): 1
- MIC without PB/MIC + PB [9, 31]: 1
- MIC ([9]; without PB, 2nd experiment): 0.5 µg/mL
- MIC without PB [9, 28]: 0.5 µg/mL
- MBC ([10]; A. baumannii A387, +0.06 μg/ml PB): 0.5 µg/mL
- MBC +0.06 μg/ml PB ([10]; A. baumannii A387, +0.06 μg/ml polymyxin B, 1st experiment): 0.25 µg/mL
- MBC ([10]; A. baumannii A387, without PB): 0.5 µg/mL
- MBC without PB ([10]; A. baumannii A387, without polymyxin B, 1st experiment): 0.5 µg/mL
- MIC ([11]; +0.06 μg/ml PB, 2nd experiment): 0.5 µg/mL
- MIC without PB/MIC + PB ([11]; +0.06 μg/ml PB, 2nd experiment): 2
- MIC ([11]; without PB, 2nd experiment): 1 µg/mL
- MIC without PB [11, 28]: 1 µg/mL
- MBC ([12]; A. baumannii A14, +0.06 μg/ml PB): 1 µg/mL
- MBC ([12]; A. baumannii A14, without PB): 2 µg/mL
- MBC ([13]; A. baumannii A390, +0.06 μg/ml PB): 0.5 µg/mL
- MBC ([13]; A. baumannii A390, without PB): 1 µg/mL
- MBC without PB ([13]; A. baumannii A390, without polymyxin B, 1st experiment): 1 µg/mL
- MBC ([14]; A. baumannii A473, +0.06 μg/ml PB): 0.5 µg/mL
- MBC ([14]; A. baumannii A473, without PB): 1 µg/mL
- MBC without PB ([14]; A. baumannii A473, without polymyxin B, 1st experiment): 0.5 µg/mL
- MBC ([15]; +[…] PB): 0.5 µg/mL
- MBC +[…] PB [15, 27]: 1.00 µg/mL
- MBC ([15]; without PB): 2 µg/mL
- MBC without PB [15, 28]: 2 µg/mL
- MIC ([16]; +0.06 μg/ml PB): 1 µg/mL
- MIC +0.06 μg/ml PB ([16]; +0.06 μg/ml polymyxin B, 1st experiment): 1.00 µg/mL
- MIC without PB/MIC + PB [16, 31]: 2
- MIC ([16]; without PB): 1 µg/mL
- MIC without PB [16, 28]: 2 µg/mL
- MBC ([17]; A baumannii A 401, +0.06 μg/ml PB): 1 µg/mL
- MBC +0.06 μg/ml PB ([17]; A baumannii A 401, +0.06 μg/ml polymyxin B, 1st experiment): 1.00 µg/mL
- MBC ([17]; A baumannii A 401, without PB): 1 µg/mL
- MBC without PB ([17]; A baumannii A 401, without polymyxin B, 1st experiment): 1 µg/mL
- MIC ([18]; +[…] PB): 0.5 µg/mL
- MIC +[…] PB [18, 27]: 0.5 µg/mL
- MIC without PB/MIC + PB ([18]; ratio, PB […], 1st experiment): 2
- MIC ([18]; without PB): 1 µg/mL
- MIC without PB [18, 28]: 1 µg/mL
- MBC ([19]; +[…] PB): 0.5 µg/mL
- MBC +[…] PB [19, 27]: 0.25 µg/mL
- MBC ([19]; without PB): 1 µg/mL
- MBC without PB [19, 28]: 1 µg/mL
- MIC ([20]; +0.06 μg/ml PB, 2nd experiment): 0.5 µg/mL
- MIC without PB/MIC + PB ([20]; +0.06 μg/ml PB, 2nd experiment): 0
- MIC without PB [20, 28]: 1 µg/mL
- MIC ([21]; +[…] PB, 2nd experiment): 0.5 µg/mL
- MIC without PB/MIC + PB ([21]; +[…] PB, 2nd experiment): 2
- MIC +[…] PB [21, 27]: 1.00 µg/mL
- MIC without PB/MIC + PB ([21]; ratio, PB […], 1st experiment): 1
- MIC ([21]; without PB, 2nd experiment): 1 µg/mL
- MIC without PB [21, 28]: 1 µg/mL
- MIC +[…] PB ([22]; +[…] polymyxin B): 1.00 µg/mL
- MIC without PB/MIC + PB ([22]; ratio, PB […]): 8
- MIC without PB ([22]; without polymyxin B): 8 µg/mL
- MIC ([23]; +[…] PB): 0.5 µg/mL
- MIC without PB/MIC + PB ([23]; +[…] PB): 4
- MIC ([23]; without PB): 2 µg/mL
- MIC +0.06 μg/ml PB ([24]; +0.06 μg/ml polymyxin B): 8.00 µg/mL
- MIC without PB/MIC + PB ([24]; ratio, PB 0.06 μg/ml): 1
- MIC without PB ([24]; without polymyxin B): 8 µg/mL
